The source of these data is US20120214822A1 (ASTRAZENECA AB, priority 2007, published 2012).

In the first data set the target is human active recombinant p38α-6His tagged (Homo sapiens, UniProt Q16539). Description: P38 Alpha Enzyme Assay (AlphaScreen, biotinylated-ATF2 substrate).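 Note: 0.5 nM final p38α, reaction started with ATP and run 45 min at 37 °C, phospho-ATF2 read by antibody-based AlphaScreen, background wells quenched with EDTA before ATP.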 The class given is biochemical. The note with it: p38 alpha enzyme inhibition; means of replicate determinations; 4 h pre-incubation at 37° C.; SD of assay 0.2-0.3 log units. A general note: In Alpha technology, singlet oxygen from a donor bead excites a nearby acceptor bead.
Chain of human active recombinant p38α-6His tagged (Q16539 whole entry): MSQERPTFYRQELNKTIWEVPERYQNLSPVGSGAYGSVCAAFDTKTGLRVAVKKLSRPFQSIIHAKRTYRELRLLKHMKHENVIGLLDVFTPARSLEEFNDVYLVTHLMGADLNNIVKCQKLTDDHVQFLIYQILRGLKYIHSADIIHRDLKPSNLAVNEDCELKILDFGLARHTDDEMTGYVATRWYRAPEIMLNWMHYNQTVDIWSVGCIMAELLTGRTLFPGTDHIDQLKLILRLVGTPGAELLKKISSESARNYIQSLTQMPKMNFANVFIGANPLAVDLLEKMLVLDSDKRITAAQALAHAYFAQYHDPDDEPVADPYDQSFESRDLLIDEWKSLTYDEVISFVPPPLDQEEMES
`Cc1ccc(C(=O)NC2CC2)cc1-n1ccnc(NCC(C)(C)C)c1=O` [Example 49, N-Cyclopropyl-3-[3-[(2,2-dimethylpropyl)amino]-2-oxo-1(2H)-pyrazinyl]-4-methyl-benzamide]: the negative-log IC50 (pIC50) (as a rule, the negative decadic logarithm of the IC50, by convention in mol/L) was 6.9.
Same read-out and setting: in the case of `Cc1ccc(C(=O)NC2CC2)cc1-n1ccnc(NC2(c3ccccc3OCCN3CCC[C@H]3CO)CC2)c1=O` [Example 239, N-Cyclopropyl-3-[3-[[1-[2-[2-[(2S)-2-(hydroxymethyl)-1-pyrrolidinyl]ethoxy]phenyl]cyclopropyl]amino]-2-oxo-1(2H)-pyrazinyl]-4-methyl-benzamide] it was 9.6; in that of `Cc1ccc(C(=O)NC2CC2)cc1-n1ccnc(NCc2ccccc2C(F)(F)F)c1=O` [Example 79, N-Cyclopropyl-4-methyl-3-[2-oxo-3-[[[2-(trifluoromethyl)phenyl]methyl]amino]-1(2H)-pyrazinyl]-benzamide], 7.7; in that of `CCc1ccc(C(=O)NC2CC2)cc1-n1ccnc(NC(C)(C)c2ccccc2OCCNCCO)c1=O` [Example 291, N-Cyclopropyl-4-ethyl-3-[3-{[1-(2-{2-[(2-hydroxyethyl)amino]ethoxy}phenyl)-1-methylethyl]amino}-2-oxopyrazin-1(2H)-yl]benzamide], 8.5.
As for `Cc1ccc(C(=O)NC2CC2)cc1-n1ccnc(NC2(c3ccccc3OCCN3CCN(CCO)CC3)CC2)c1=O` [Example 232, N-Cyclopropyl-3-[3-[[1-[2-[2-[4-(2-hydroxyethyl)-1-piperazinyl]ethoxy]phenyl]cyclopropyl]amino]-2-oxo-1(2H)-pyrazinyl]-4-methyl-benzamide], the pIC50 turned out to be 9.1.
Still for that read-out and setting: in the case of `Cc1ccc(C(=O)NC2CC2)cc1-n1ccnc(NCc2ccccc2-c2ccccc2)c1=O` [Example 44, 3-[3-[([1,1′-Biphenyl]-2-ylmethyl)amino]-2-oxo-1(2H)-pyrazinyl]-N-cyclopropyl-4-methyl-benzamide] it was 7.6; in that of `Cc1ccc(C(=O)NC2CC2)cc1-n1ccnc(N2CCN(C)CC2c2ccccc2)c1=O` (centres unmarked) [Example 119, N-Cyclopropyl-4-methyl-3-[3-(4-methyl-2-phenyl-1-piperazinyl)-2-oxo-1(2H)-pyrazinyl]-benzamide], 6.6; in that of `CNCCOc1ccccc1C1(Nc2nccn(-c3cc(C(=O)NC4CC4)c(F)cc3C)c2=O)CC1` [Example 319, N-Cyclopropyl-2-fluoro-4-methyl-5-{3-[(1-{2-[2-(methylamino)ethoxy]phenyl}cyclopropyl)amino]-2-oxopyrazin-1(2H)-yl}benzamide], 8.1.
Still for that read-out and setting: in the case of `Cc1ccc(C(=O)NC2CC2)cc1-n1ccnc(NCc2cc(C(F)(F)F)cc(C(F)(F)F)c2)c1=O` [Example 99, 3-[3-[[[3,5-Bis(trifluoromethyl)phenyl]methyl]amino]-2-oxo-1(2H)-pyrazinyl]-N-cyclopropyl-4-methyl-benzamide] it was 7.1.
On to `Cc1ccc(C(=O)NC2CC2)cc1-n1ccnc(NC2(c3ccccc3OCCN3CCc4c(ncn4C)C3)CC2)c1=O` [Example 297, N-Cyclopropyl-4-methyl-3-{3-[(1-{2-[2-(1-methyl-1,4,6,7-tetrahydro-5H-imidazo[4,5-c]pyridin-5-yl)ethoxy]phenyl}cyclopropyl)amino]-2-oxopyrazin-1(2H)-yl}benzamide], for which the pIC50 is on record as 9.4.
On the same count and under the same terms, in the case of `Cc1ccc(C(=O)NC2CC2)cc1-n1ccnc(NCc2ccc(F)cc2)c1=O` [Example 33, N-Cyclopropyl-3-[3-[[(4-fluorophenyl)methyl]amino]-2-oxo-1(2H)-pyrazinyl]-4-methyl-benzamide] it was 7.5; in that of `Cc1ccc(C(=O)NC2CC2)cc1-n1cc(Cl)nc(NCCCN(C)C)c1=O` [Example 108, 3-[5-Chloro-3-[[3-(dimethylamino)propyl]amino]-2-oxo-1(2H)-pyrazinyl]-N-cyclopropyl-4-methyl-benzamide], 6.3.
Same read-out and setting: the value for `Cc1ccc(C(=O)NC2CC2)cc1-n1ccnc(N[C@@H](c2ccccc2)[C@@H](C)CNCCN(C)C)c1=O` [Example 155, N-Cyclopropyl-3-[3-[[(1R,2S)-3-[[2-(dimethylamino)ethyl]amino]-2-methyl-1-phenylpropyl]amino]-2-oxo-1(2H)-pyrazinyl]-4-methyl-benzamide] was 9.1.

Test system in the next data set: not listed separately
Description: GVS (Dynamic Vapour Sorption) water uptake of crystalline forms. The class given is physicochemical. The note with it: at 80% RH; ±0.2%. The protocol:
GVS profiles were measured using a Dynamic Vapour Sorption DVS-1 instrument. The solid sample ca. 1-5 mg was placed into a glass vessel and the weight of the sample was recorded during a dual cycle step method (40 to 90 to 0 to 90 to 0% relative humidity (RH), in steps of 10% RH).
As for `CNCCOc1ccccc1C(C)(C)Nc1nccn(-c2cc(C(=O)NC3CC3)ccc2C)c1=O` [example 163 crystalline form A, N-Cyclopropyl-4-methyl-3-[3-[[1-methyl-1-[2-[2-(methylamino)ethoxy]phenyl]ethyl]amino]-2-oxo-1(2H)-pyrazinyl]-benzamide Crystalline Form A], the GVS weight increase was found to be 5 % w/w.
On the same count and under the same terms, the value for `CNCCOc1ccccc1C(C)(C)Nc1nccn(-c2cc(C(=O)NC3CC3)ccc2C)c1=O.Cc1ccc(S(=O)(=O)O)cc1` [N-Cyclopropyl-4-methyl-3-[3-[[1-methyl-1-[2-[2-(methylamino)ethoxy]phenyl]ethyl]amino]-2-oxo-1(2H)-pyrazinyl]-benzamide Tosylate Salt Crystalline Form A] was 0.1 % w/w.
As for `CNCCOc1ccccc1C(C)(C)Nc1nccn(-c2cc(C(=O)NC3CC3)ccc2C)c1=O` [example 163 crystalline form C, N-Cyclopropyl-4-methyl-3-[3-[[1-methyl-1-[2-[2-(methylamino)ethoxy]phenyl]ethyl]amino]-2-oxo-1(2H)-pyrazinyl]-benzamide Crystalline Form C], the GVS weight increase is recorded as 0.3 % w/w.
The same measure, in the same setting: the value for `CNCCOc1ccccc1C(C)(C)Nc1nccn(-c2cc(C(=O)NC3CC3)ccc2C)c1=O` [example 163 crystalline form B, N-Cyclopropyl-4-methyl-3-[3-[[1-methyl-1-[2-[2-(methylamino)ethoxy]phenyl]ethyl]amino]-2-oxo-1(2H)-pyrazinyl]-benzamide Crystalline Form B] was 4.3 % w/w.

Staying with this data set, now noted: between RH of 0%-80%; ±0.2%.
Consider `CNCCOc1ccccc1C1(Nc2nccn(-c3cc(C(=O)NC4CC4)cc(F)c3C)c2=O)CC1` [example 259 crystalline form A, N-Cyclopropyl-3-fluoro-4-methyl-5-[3-[[1-[2-[2-(methylamino)ethoxy]phenyl]cyclopropyl]amino]-2-oxo-1(2H)-pyrazinyl]-benzamide Crystalline Form A], for which the “water uptake as measured by GVS” value came out at 0.4%.
On the same count and under the same terms, the value for `CNCCOc1ccccc1C1(Nc2nccn(-c3cc(C(=O)NC4CC4)ccc3C)c2=O)CC1` [example 167 Crystalline Form A, N-Cyclopropyl-4-methyl-3-[3-[[1-[2-[2-(methylamino)ethoxy]phenyl]cyclopropyl]amino]-2-oxo-1(2H)-pyrazinyl]-benzamide Crystalline Form A] was 1%; that for `Cc1c(F)cc(C(=O)NC2CC2)cc1-n1ccnc(NC2(c3ccccc3OCCNCCO)CC2)c1=O` [example 260 crystalline form A, N-Cyclopropyl-3-fluoro-5-[3-[[1-[2-[2-[(2-hydroxyethyl)amino]ethoxy]phenyl]cyclopropyl]amino]-2-oxo-1(2H)-pyrazinyl]-4-methyl-benzamide Crystalline Form A] was 1.2%.
